{
  "source": "patent US20060009425A1",
  "about": "“Oral formulations of paricalcitol” (priority 2004, published 2006)",
  "key": {"[1]": {"assay": "Single and multiple dose pharmacokinetics, 4 μg QD vs 8 μg TIW, subjects in general good health (Example 5)", "type": "in vivo, human", "conditions": "for AUC(0-inf) / Cmax / Tmax / half-life / AUC(0-t): human, plasma, oral; for half-life: harmonic mean ± pseudo-standard deviation", "protocol": "Methodology: This Phase I, multiple-dose, open-label, randomized study was conducted according to an […], crossover design. Subjects were randomized into two sequence groups of equal size of Regimens A and B. Subjects received the following regimens: • Regimen A: One 4 μg paricalcitol soft elastic capsule on Study Day 1 and one 4 μg paricalcitol capsule QD for 11 doses on Study Days 3 through 13. • Regimen B: Two 4 μg paricalcitol soft elastic capsules three times a week (8 μg TIW) for 6 doses on Study Days 1, 3, 5, 8, 10, and 12.\nThe paricalcitol dose was administered at approximately 0700, 30 minutes after breakfast was served on the dosing days of each period. Each dose was administered orally with 240 mL of water. A washout interval of at least 7 days separated the dose of period 1 and dose of period 2.\nSeven (7) mL blood samples (to yield at least 3 mL of plasma) were obtained by venipuncture for paricalcitol plasma concentration into appropriately labeled EDTA-containing collection tubes. The blood sampling was as shown below in Table 10.\nFor Regimen B, a blood sample was collected 48 hours after the Study Day 5 dose (Study Day 7) and immediately prior to dosing (0 hour) on Study Day 10.\nPlasma concentrations of paricalcitol were determined using a validated liquid chromatography-tandem mass spectrometric assay method at Abbott Laboratories, Abbott Park, Ill. (a proprietary method of Abbott Laboratories). The lower limit of quantification (abbreviated as “LOQ”) of paricalcitol was 0.02 ng/mL using a 0.6 mL plasma sample.\nPharmacokinetics: The following pharmacokinetic parameter values were determined using standard non-compartmental methods: maximum observed plasma concentration (Cmax), time to Cmax(Tmax), terminal phase elimination rate constant (β), terminal elimination half-life (t1/2), area under the plasma concentration vs. time curve extrapolated to infinite time (AUC0-∞) following the first dose and area under the plasma concentration vs. time curve over the dose interval at steady state (AUC0-τ; also referred to as AUC0-48 or AUC0-24 as appropriate). Accumulation index (AI) and degree of fluctuation (DFL) were also evaluated at steady state.\nStatistical Methods: An analysis of variance (ANOVA) was performed to compare single- and multiple-dose pharmacokinetics of paricalcitol. The model included effects for sequence, subject nested within sequence, day (i.e., first dose or last dose), and sequence by day interaction. The effect for subject was random, while all other effects were fixed. The analyzed variables include Tmax, β, and the logarithms of AUC and Cmax. The AUC value for the single dose was AUC0-∞, while the AUC for the multiple dose was AUC0-24. The trough concentrations were analyzed using the same ANOVA model described above to address the issue of steady state attainment for the QD regimen.\nThe logarithmic transformation was also used for AUC. The model had effects for sequence, subject nested within sequence, period and regimen. The effect for subject was random, while all other effects were fixed. […] Study Day 1 Tmax, β, dose-normalized Cmax and AUC0-∞ from Regimen A and Regimen B were analyzed using the same ANOVA model. […] This same model again was used to compare Regimen A and Regimen B with respect to AI values."}, "[2]": {"tested_on": "biochemical bone activity markers", "assay": "Phase 3 once daily study, biochemical bone activity markers (Table E)", "type": "in vivo, human", "conditions": "CKD Stage 3 and 4, daily (QD) treated subjects (Table E)", "protocol": "Serum bone-specific alkaline phosphate and serum osteocalcin are considered more sensitive bone markers to evaluate degree of bone remodeling than urinary bone marker. […] As shown in Examples 5-7 and Tables C (Example 5), Table D (Example 6) and Table E (Example 7), certain biochemical bone activity marker variables were analyzed in CKD Stage 3 and 4 subjects. These subjects received treatment with the oral formulations of the present invention or a placebo. The bone markers examined in these subjects were serum osteocalcin, serum bone-specific alkaline phosphatase, urinary pyridinoline, and deoxypyridinoline. If more than 1 biochemical bone activity marker measurement existed for a subject on a particular day, the higher measurement was considered to be that subject's biochemical bone activity marker measurement for that day. […] The Final Visit measurement was defined as the last biochemical bone activity marker measurement following the first dose of study drug.\nThe Week 11 Visit measurement was defined as the biochemical bone activity marker measurement on the day closest to the Week 11 scheduled visit, for which the possible measurements to choose from were those collected within 64 and 77 days following the first dose of study drug.\nChanges from baseline to Week 11 Visit and to Final Visit in biochemical bone activity markers were compared between oral paricalcitol and placebo using an ANOVA with treatment as the factor on the combined Phase 3 all treated subject population (Table F). Also, the changes from baseline to Week 11 Visit and to Final Visit were compared between oral paricalcitol and placebo using an ANCOVA with baseline as the second factor on the combined Phase 3 all treated subject population (Table G).\nDuring the Treatment Phase, subjects were to self-administer study drug once daily for a total of 24 weeks. The initial dose was 1 or 2 mcg (depending on baseline iPTH levels). Procedures to be performed during the Treatment Phase included vital signs, chemistry and hematology, urinary pyridinoline, urinary deoxypyridinoline, serum bone-specific alkaline phosphatase, serum osteocalcin, urinalysis, spot urine for calcium/creatinine ratio, and recording of adverse events and concurrent medications. Serum iPTH, calcium, phosphorus, and albumin were measured every 2 weeks. Dose adjustments were to be made according to these chemistry results for iPTH, calcium, and phosphorus. Doses may have been increased in 1 mcg increments every 4 weeks. Dose reductions were to occur according to a protocol-specified algorithm. However, dosing could have been adjusted any time if, in the judgment of the Investigator, a risk to subject safety existed."}, "[3]": {"conditions": "Regimen A 4 μg QD, Study Day 12"}, "[4]": {"conditions": "Regimen A 4 μg QD, Study Day 13"}, "[5]": {"conditions": "Regimen B 8 μg TIW, Study Day 1"}, "[6]": {"conditions": "Regimen B 8 μg TIW, Study Day 12 and 13"}, "[7]": {"conditions": "4 ug, Regimen A 4 μg QD, Study Day 1"}, "[8]": {"conditions": "4 ug, Regimen A 4 μg QD, Study Day 12"}, "[9]": {"conditions": "4 ug, Regimen A 4 μg QD, Study Day 13"}, "[10]": {"conditions": "8 ug, Regimen B 8 μg TIW, Study Day 1"}, "[11]": {"conditions": "8 ug, Regimen B 8 μg TIW, Study Day 12 and 13"}},
  "note": "Like-named read-outs stand apart in the source and are kept apart here.",
  "data": [
    {"smiles": "C[C@H](/C=C/[C@H](C)C(C)(C)O)[C@H]1CC[C@H]2/C(=C/C=C3C[C@@H](O)C[C@H](O)C3)CCC[C@]12C", "note": "[Paricalcitol, 19-nor-1α,3β,25-trihydroxy-9,10-secoergosta-5(Z); 7(E),22(E)-triene]", "values": [
      {"measurement": "steady state reached by", "setting": "[1]; 4 μg QD or 8 μg TIW", "result": "≤ 7", "unit": "Study Day"},
      {"measurement": "CL/F", "setting": "[1]; Regimen A 4 μg QD, Study Day 1", "result": "3.95 ± 1.19^Φ L/h"},
      {"measurement": "Vdβ/F", "setting": "[1]; Regimen A 4 μg QD, Study Day 1", "result": "38.9 ± 18.7^Φ L"},
      {"measurement": "AI", "setting": "[1]; [3]", "result": "1.759 ± 1.829"},
      {"measurement": "CL/F", "setting": "[1]; [3]", "result": "4.33 ± 2.08", "unit": "L/h"},
      {"measurement": "Cmin", "setting": "[1]; [3]", "result": "0.005 ± 0.010", "unit": "ng/mL"},
      {"measurement": "DFL", "setting": "[1]; [3]", "result": "2.584 ± 0.889"},
      {"measurement": "Vdβ/F", "setting": "[1]; [3]", "result": "44.9 ± 23.0^ε L"},
      {"measurement": "AI", "setting": "[1]; [4]", "result": "1.483 ± 1.442"},
      {"measurement": "AUC/Dose (AUC0-24/Dose)", "setting": "[1]; [4]", "result": "0.226 ± 0.049", "unit": "ng·h/mL/µg"},
      {"measurement": "CL/F", "setting": "[1]; [4]", "result": "4.65 ± 1.16", "unit": "L/h"},
      {"measurement": "Cmin", "setting": "[1]; [4]", "result": "0.001 ± 0.005", "unit": "ng/mL"},
      {"measurement": "DFL", "setting": "[1]; [4]", "result": "2.761 ± 0.761"},
      {"measurement": "Vdβ/F", "setting": "[1]; [4]", "result": "43.7 ± 17.9^ε L"},
      {"measurement": "CL/F", "setting": "[1]; [5]", "result": "3.65 ± 1.61", "unit": "L/h"},
      {"measurement": "Vdβ/F", "setting": "[1]; [5]", "result": "41.0 ± 12.7", "unit": "L"},
      {"measurement": "AI", "setting": "[1]; [6]", "result": "1.000 ± 0.312"},
      {"measurement": "CL/F", "setting": "[1]; [6]", "result": "3.79 ± 1.07", "unit": "L/h"},
      {"measurement": "Cmin", "setting": "[1]; [6]", "result": "0.000 ± 0.000", "unit": "ng/mL"},
      {"measurement": "DFL", "setting": "[1]; [6]", "result": "4.637 ± 1.397"},
      {"measurement": "Vdβ/F", "setting": "[1]; [6]", "result": "42.1 ± 28.7^δ L"},
      {"measurement": "AUC(0-inf)", "setting": "[1]; [7]", "result": "1.11 ± 0.342", "unit": "ng·h/mL"},
      {"measurement": "Cmax", "setting": "[1]; [7]", "result": "0.1 ± 0.033", "unit": "ng/mL"},
      {"measurement": "Tmax", "setting": "[1]; [7]", "result": "4.8 ± 2.8", "unit": "h"},
      {"measurement": "half-life", "setting": "[1]; [7]", "result": "6.2 ± 2.1", "unit": "h"},
      {"measurement": "AUC(0-t)", "setting": "[1]; 4 ug, Regimen A 4 μg QD, Study Day 1, read-out: AUC0-t", "result": "0.701 ± 0.339", "unit": "ng·h/mL"},
      {"measurement": "Cmax", "setting": "[1]; [8]", "result": "0.112 ± 0.031", "unit": "ng/mL"},
      {"measurement": "Tmax", "setting": "[1]; [8]", "result": "4.4 ± 2.6", "unit": "h"},
      {"measurement": "half-life", "setting": "[1]; [8]", "result": "6.8 ± 3.1", "unit": "h"},
      {"measurement": "AUC(0-t)", "setting": "[1]; 4 ug, Regimen A 4 μg QD, Study Day 12, read-out: AUC0-τ (AUC0-24)", "result": "1.07 ± 0.359", "unit": "ng·h/mL"},
      {"measurement": "Cmax", "setting": "[1]; [9]", "result": "0.105 ± 0.035", "unit": "ng/mL"},
      {"measurement": "Tmax", "setting": "[1]; [9]", "result": "4.5 ± 1.6", "unit": "h"},
      {"measurement": "half-life", "setting": "[1]; [9]", "result": "5.8 ± 2.5", "unit": "h"},
      {"measurement": "AUC(0-t)", "setting": "[1]; 4 ug, Regimen A 4 μg QD, Study Day 13, read-out: AUC0-τ (AUC0-24)", "result": "0.904 ± 0.196", "unit": "ng·h/mL"},
      {"measurement": "AUC(0-inf)", "setting": "[1]; [10]", "result": "2.55 ± 1.08", "unit": "ng·h/mL"},
      {"measurement": "Cmax", "setting": "[1]; [10]", "result": "0.2 ± 0.062", "unit": "ng/mL"},
      {"measurement": "Tmax", "setting": "[1]; [10]", "result": "4.4 ± 1.4", "unit": "h"},
      {"measurement": "half-life", "setting": "[1]; [10]", "result": "7.3 ± 3.2", "unit": "h"},
      {"measurement": "AUC(0-t)", "setting": "[1]; 8 ug, Regimen B 8 μg TIW, Study Day 1, read-out: AUC0-t", "result": "2.05 ± 0.881", "unit": "ng·h/mL"},
      {"measurement": "Cmax", "setting": "[1]; [11]", "result": "0.217 ± 0.077", "unit": "ng/mL"},
      {"measurement": "Tmax", "setting": "[1]; [11]", "result": "4.3 ± 2.6", "unit": "h"},
      {"measurement": "half-life", "setting": "[1]; [11]", "result": "6.8 ± 2.2", "unit": "h"},
      {"measurement": "AUC(0-t)", "setting": "[1]; 8 ug, Regimen B 8 μg TIW, Study Day 12 and 13, read-out: AUC0-τ (AUC0-48)", "result": "2.26 ± 0.566", "unit": "ng·h/mL"},
      {"measurement": "dose proportionality of pharmacokinetics", "setting": "[1]; single dose and steady state over the studied dose range", "result": "dose proportional"},
      {"measurement": "Serum Bone-Specific Alkaline Phosphatase, Change from Baseline (SE) to Final", "setting": "[2]", "result": "−7.575 (1.3976) mcg/L"},
      {"measurement": "Serum Bone-Specific Alkaline Phosphatase, Change from Baseline (SE) to Week 11", "setting": "[2]", "result": "−5.383 (1.0482) mcg/L"},
      {"measurement": "Serum Osteocalcin, Change from Baseline (SE) to Final", "setting": "[2]", "result": "−27.07 (5.544) ng/mL"},
      {"measurement": "Serum Osteocalcin, Change from Baseline (SE) to Week 11", "setting": "[2]", "result": "−0.22 (4.968) ng/mL"},
      {"measurement": "Urinary Deoxypyridinoline, Change from Baseline (SE) to Final", "setting": "[2]", "result": "0.0100 (0.01392) nmol/mg Creat"},
      {"measurement": "Urinary Deoxypyridinoline, Change from Baseline (SE) to Week 11", "setting": "[2]", "result": "−0.0216 (0.01018) nmol/mg Creat"},
      {"measurement": "Urinary Pyridinoline, Change from Baseline (SE) to Final", "setting": "[2]", "result": "0.26 (4.452) nmol/mmol Creat"},
      {"measurement": "Urinary Pyridinoline, Change from Baseline (SE) to Week 11", "setting": "[2]", "result": "−5.27 (3.884) nmol/mmol Creat"}
    ]}
  ]
}
